Assay: xn = mol fraction of the nth substance listed

CCN(CC)CC + CCCCOCCO
viscosity [mPa·s], 100 kPa
Conditions	298.15 K	303.15 K	308.15 K
x2 = 0.0506	0.431	0.407	0.383
x2 = 0.1002	0.51	0.474	0.447
x2 = 0.1499	0.598	0.553	0.518
x2 = 0.2	0.689	0.632	0.594
x2 = 0.3001	0.875	0.802	0.75
x2 = 0.3999	1.097	0.99	0.922
x2 = 0.5001	1.35	1.212	1.122
x2 = 0.6	1.632	1.457	1.342
x2 = 0.6996	1.946	1.714	1.576
x2 = 0.7994	2.254	1.979	1.809
x2 = 0.8995	2.578	2.264	2.058
x2 = 0.9498	2.724	2.392	2.174

ClC(Cl)(Cl)Cl + CCCO
101 kPa
Conditions	viscosity [mPa·s]
298.15 K, x2 = 0.0685	0.89
298.15 K, x2 = 0.1	0.903
298.15 K, x2 = 0.1294	0.909
298.15 K, x2 = 0.2085	0.962
298.15 K, x2 = 0.22	0.946
298.15 K, x2 = 0.2859	1.02
298.15 K, x2 = 0.31	1.012
298.15 K, x2 = 0.39	1.089
298.15 K, x2 = 0.3964	1.113
298.15 K, x2 = 0.5849	1.317
298.15 K, x2 = 0.63	1.409
298.15 K, x2 = 0.72	1.554
298.15 K, x2 = 0.79	1.667
298.15 K, x2 = 0.8446	1.724
298.15 K, x2 = 0.8705	1.769
298.15 K, x2 = 0.8955	1.808
298.15 K, x2 = 0.91	1.88
298.15 K, x2 = 0.9511	1.877
303.15 K, x2 = 0.0615	0.8319
303.15 K, x2 = 0.0651	0.8324
303.15 K, x2 = 0.1059	0.8333
303.15 K, x2 = 0.2377	0.8752
303.15 K, x2 = 0.3576	0.9546
303.15 K, x2 = 0.4503	1.041
303.15 K, x2 = 0.5592	1.163
303.15 K, x2 = 0.6985	1.339
303.15 K, x2 = 0.7899	1.461
303.15 K, x2 = 0.8376	1.524
303.15 K, x2 = 0.8976	1.603
303.15 K, x2 = 0.9626	1.682
303.15 K, x2 = 0.9633	1.684
308.15 K, x2 = 0.0685	0.775
308.15 K, x2 = 0.1294	0.785
308.15 K, x2 = 0.2085	0.817
308.15 K, x2 = 0.2859	0.849
308.15 K, x2 = 0.3964	0.905
308.15 K, x2 = 0.5849	1.071
308.15 K, x2 = 0.8446	1.383
308.15 K, x2 = 0.8705	1.402
308.15 K, x2 = 0.8955	1.435
308.15 K, x2 = 0.9511	1.487
318.15 K, x2 = 0.0685	0.676
318.15 K, x2 = 0.1294	0.686
318.15 K, x2 = 0.2085	0.702
318.15 K, x2 = 0.2859	0.735
318.15 K, x2 = 0.3964	0.772
318.15 K, x2 = 0.5849	0.882
318.15 K, x2 = 0.8446	1.109
318.15 K, x2 = 0.8705	1.128
318.15 K, x2 = 0.8955	1.152
318.15 K, x2 = 0.9511	1.196
